The numbers were not newly measured in US8884000B2 (priority 2010, dated 2014), which cites them from elsewhere.

Usually Km stands for the substrate concentration at which the rate is half of its maximum. For orientation: kcat means the maximal rate divided by the concentration of active sites.

The series concerns the target saporin-L1 (Saponaria officinalis, UniProt Q2QEH4). To be noted: pH 7.8.

Chain of saporin-L1 (Q2QEH4 22-280 limits assumed): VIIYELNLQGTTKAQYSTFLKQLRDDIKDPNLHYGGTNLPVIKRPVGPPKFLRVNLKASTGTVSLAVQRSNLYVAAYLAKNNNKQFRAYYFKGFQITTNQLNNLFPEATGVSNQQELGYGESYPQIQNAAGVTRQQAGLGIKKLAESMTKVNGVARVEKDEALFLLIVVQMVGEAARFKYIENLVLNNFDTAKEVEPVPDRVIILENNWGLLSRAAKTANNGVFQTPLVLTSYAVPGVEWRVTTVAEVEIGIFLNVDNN

On to poly(A), for which the Km is 639 ± 32 µM and the kcat was 1.02 ± 0.017 s⁻¹.
